# Source: patent US20070053883A1, “Neuronal cell lineages and methods of production thereof” (THE JOHNS HOPKINS UNIVERSITY, priority 2003, published 2007)
# Entries after “also recorded” stand apart in the source; their conditions may differ.
# Key:
# SmoA1 = biological target: T1, SmoA1 (Mus musculus, UniProt P56726, W539L); assay: Shh pathway activity driven by oncogenic Smo (SmoA1, W539L) in NIH3T3 cells; assay type: cell-based; details: cholesterol depletion by cyclodextrin and compactin treatments
# T1 construct: expressed in transfected cells
# T1 sequence (P56726 33-793 W539L): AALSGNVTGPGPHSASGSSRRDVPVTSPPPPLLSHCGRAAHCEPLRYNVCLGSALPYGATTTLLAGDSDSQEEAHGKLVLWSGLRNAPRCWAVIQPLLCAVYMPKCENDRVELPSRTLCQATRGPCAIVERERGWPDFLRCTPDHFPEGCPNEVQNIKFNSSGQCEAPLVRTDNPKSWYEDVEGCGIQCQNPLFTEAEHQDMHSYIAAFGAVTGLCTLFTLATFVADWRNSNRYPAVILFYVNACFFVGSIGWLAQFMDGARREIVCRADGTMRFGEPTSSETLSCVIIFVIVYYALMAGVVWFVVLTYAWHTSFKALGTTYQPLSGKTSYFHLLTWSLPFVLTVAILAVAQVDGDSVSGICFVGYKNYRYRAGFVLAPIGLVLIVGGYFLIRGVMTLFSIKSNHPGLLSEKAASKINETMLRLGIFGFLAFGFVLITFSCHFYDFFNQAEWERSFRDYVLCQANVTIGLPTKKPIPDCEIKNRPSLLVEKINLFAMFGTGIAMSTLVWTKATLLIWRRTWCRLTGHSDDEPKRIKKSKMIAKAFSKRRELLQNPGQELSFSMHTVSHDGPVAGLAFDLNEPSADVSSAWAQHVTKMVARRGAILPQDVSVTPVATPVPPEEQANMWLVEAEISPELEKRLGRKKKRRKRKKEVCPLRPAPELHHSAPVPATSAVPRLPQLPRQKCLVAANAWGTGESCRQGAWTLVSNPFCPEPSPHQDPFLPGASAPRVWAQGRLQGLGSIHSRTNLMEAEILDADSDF
# Experimental: (§1) Shh signaling assays. Shh signaling assays were carried out as described^16 in primary fibroblasts lacking functional Dhcr7, Sc5d or Ptch and in NIH3T3 fibroblasts. Dhcr7^−/− and Dhcr7^+/− MEFs were generated from embryonic day-9 mutant mice and Sc5h1 and Sc5d^−/− and Sc5d^+/− MEFs from embryonic day-14.5 mutant mice. We generated a reporter construct with firefly luciferase and Gli (pGL3-8xGli-luciferase) by cloning eight tandem Gli-binding sites and a lens crystallin promoter from the 8xGli-BS Luc construct^22 into the pGL3-Basic vector (Promega). We determined relative Hh pathway activity in Dhcr7^−/−, Dhcr7^+/−, Sc5d^+/+ and Sc5d^+/− MEFs from the expression of transiently transfected pGL3-8xGli-luciferase and control Renilla luciferase (pRL-SV40; Promega) vectors. In Ptch^−/− MEFs, we normalized β-galactosidase activity expressed under the control of the Ptch promoter for protein levels to determine relative Hh pathway activity. In the NIH3T3 cell clone Shh-LIGHT Z3, we normalized 8xGli-BS luciferase activity for β-galactosidase activity from stably transfected vectors (8xGli-BS Luc^22 and piZ-lacZ). We established clonal sublines of Shh-LIGHT Z3 by cotransfecting either Smo tagged with Myc epitope or SmoA1 with vector encoding G418 resistance (pGT; Invivogen). All transfections were done with Fugene 6. […]
# neural-crest cells = assay: BMP-induced migration of neural-crest cells from dorsal neural plate explants; assay type: cell-based, chick; details: 400 μM cyclodextrin alone, 48 h of culture
# Experimental: (§2) Chick embryos. Methyl-β-cyclodextrin (200 μl of a 10% w/v solution in L-15 medium (Sigma and Life Technologies)) was applied to windowed, fertile chick eggs (White Leghorn) after 15 h of incubation. For an average egg volume of 50 ml, the final concentration of cyclodextrin was 375 μM. After 4 d of further incubation, we processed the embryos for scanning electron microscopy. The neural plate and epidermal ectoderm was dissected from stage 9-10 chick embryos, cultured them in collagen and induced them with purified Sonic Hh N-terminal peptide ShbN^21 as described^3. Methyl-β-cyclodextrin was added to the chick explant cultures 4 h after induction with ShhN was initiated.
# Dorsal neural plate progenitor cells and an endogenous source of BMP, the adjacent epidermal ectoderm, were dissected from a region just rostral to Hensen's node in stage 9-10 chick embryos.
# [1] = test system: Hh pathway downstream of Ptch; assay: Constitutive Hh pathway activity in Ptch−/− MEFs (β-galactosidase); assay type: cell-based, mouse; details: transient treatment with increasing concentrations of cyclodextrin in combination with compactin
# Experimental: as §1
# [2] = test system: chick neural-plate explants; assay: Chick neural-plate explants induced with ShhN, stained for HNF3β or lSL1; assay type: cell-based
# Experimental: as §2
# It was further investigated whether SSH signaling in embryonic tissues by exposing chick neural-plate explants to recombinant Shh protein (ShhN, 30 nm) in the presence of cyclodextrin (FIG. 2b). FIG. 2b provides confocal microscope images of stage 9-10 chick embryo ectoderm dissected from a region of the neural plate intermediate to the notochord and roof plate and just rostral to Hensen's node. Explants were cultured for 48 h in collagen and stained for HNF3β or lSL1, as indicated.
# Smo = biological target: T2, Smo (Mus musculus, UniProt P56726); assay: Shh pathway activation by overexpression of wild-type Smo in NIH3T3 cells; assay type: cell-based; details: cholesterol depletion by cyclodextrin and compactin treatments
# T2 construct: expressed in transfected cells
# T2 sequence (P56726 33-793): as the sequence (P56726 33-793 W539L) above, with L507W counted along it
# Experimental: as §1
# Shh autoprocessing = assay: Analysis of Shh protein biogenesis (autoprocessing) in MEFs; assay type: cell-based, mouse; details: Dhcr7−/− or Sc5d−/− MEFs; transient (30 min, 3.8 mM) cyclodextrin treatment, lipid-depleted serum
# Experimental: Analysis of Shh protein biogenesis. MEFs were plated in a 10-cm^2 dish (Falcon) and transfected them (Fugene 6, Roche) with a full length Shh expression construct (pRK5-Shh, 5 μg) when the cells were roughly 75% confluent. The next day, we changed the culture medium (Dulbecco's modified Eagle medium with 10% fetal bovine serum) to contain either 0.5% fetal bovine serum, 0.5% lipid-depleted serum or lipid-depleted serum after a 30-min treatment with 3.8 mM methyl-β-cyclodextrin (Sigma). After an additional 24 h in culture, we lysed the MEFs in RIPA buffer (50 mM Tris-C1, pH 7.5, 150 mM NaCl, 1% Nonidet P-40, 0.5% sodium deoxycholate, 1 mM EDTA, 1 μg ml^−1 leupeptin, 1 μg ml aprotinin^−1, 0.2 mM phenylmethylsulfonyl fluoride), immunoprecipitated Shh protein from the cell lysates with a monoclonal antibody that recognizes the N-terminal signaling domain (5E1, Developmental Studies Hybridoma Bank) and immunoblotted them with a polyclonal antibody preparation (JH134). […]
# chick embryos = assay: Cyclodextrin treatment of chick embryos in ovo, facial features by scanning electron microscopy; assay type: in vivo; details: 375 μM cyclodextrin in ovo, applied after 15 h of incubation, early-primitive-streak stage, embryonic day 5
# Experimental: as §2
# To determine how cholesterol may affect Hh signaling in embryonic development, chick embryos were exposed to cyclodextrin, a cyclic oligosaccharide that forms non-covalent complexes with sterols and can be used to extract and deplete cholesterol from living cells. […] The most severely affected embryos developed a proboscis-like structure that phenocopies the nasal rudiments of mouse embryos that are homozygous with respect to mutations in the gene Sonic hedgehog (Shh; ref. 8).
# FIG. 2a provides scanning electron micrographs of facial features at embryonic day 5 of a control (control) chick embryo and of embryos exposed to 375 μM cyclodextrin (CD). […]
# Hh pathway [3] = assay: Shh signaling assay in Dhcr7 and Sc5d MEFs (Hh-responsive firefly luciferase reporter); assay type: cell-based, mouse
# Experimental: Shh signaling assays. Shh signaling assays were carried out as described^16 in primary fibroblasts lacking functional Dhcr7, Sc5d or Ptch and in NIH3T3 fibroblasts. Dhcr7^−/− and Dhcr7^+/− MEFs were generated from embryonic day-9 mutant mice and Sc5h1 and Sc5d^−/− and Sc5d^+/− MEFs from embryonic day-14.5 mutant mice. We generated a reporter construct with firefly luciferase and Gli (pGL3-8xGli-luciferase) by cloning eight tandem Gli-binding sites and a lens crystallin promoter from the 8xGli-BS Luc construct^22 into the pGL3-Basic vector (Promega). We determined relative Hh pathway activity in Dhcr7^−/−, Dhcr7^+/−, Sc5d^+/+ and Sc5d^+/− MEFs from the expression of transiently transfected pGL3-8xGli-luciferase and control Renilla luciferase (pRL-SV40; Promega) vectors. […]
# The effect of cholesterol depletion on responsiveness of Dhcr7^+/− (gray bars), Dhcr7^−/− (maroon bars), Sc5d^+/− (gray bars), and Sc5d^−/− (green bars) MEFs to Shh signaling was assayed by transfection with a Hh-responsive firefly luciferase reporter and treatment with purified ShhNp (10 nM). […] For each culture condition, normalized firefly luciferase activity from control and ShhNp treated cells was used to calculate the relative induction, expressed as a percentage of the Shh induction achieved in MEFs cultured in full serum. […]
# [4] = test system: Dhcr7−/− and Sc5d−/− MEFs; assay: Sterol analysis of MEFs cultured in parallel with signaling assays; assay type: cell-based, mouse; details: lipid-depleted serum
# Experimental: Sterol analysis. Neutral sterols were extracted and analyzed as described^24 from replicate wells of MEFs cultured in parallel with those used for signaling assays.
# (§3) The combination of transient cyclodextrin treatment followed by inhibition of cholesterol synthesis blocked the response to ShhNp, whereas neither treatment alone did so. FIG. 4c, Hh path way inhibition persisted for 72 h after cyclodextrin treatment. The 3-d recovery period was intended to allow replenishment of non-sterol cellular components depleted by transient cyclodextrin treatment while maintaining sterol depletion with HMG-CoA reductase inhibition by compactin. FIG. 4d, Total cellular sterols from parallel cultures of NIH3T3 (c, 36 h), Dhcr7^−/− and Sc5d^−/− (FIG. 3b) MEFs were determined by gas chromatography-mass spectrometry analysis of extracted lipids and plotted against the relative Shh pathway activity. Bars represent one standard error (quadruplicate wells).
# Hh pathway [5] = assay: Shh signaling assay in NIH3T3 Shh-LIGHT Z3 cells (Gli luciferase reporter); assay type: cell-based
# Experimental: Shh signaling assays. Shh signaling assays were carried out as described^16 in primary fibroblasts lacking functional Dhcr7, Sc5d or Ptch and in NIH3T3 fibroblasts. Dhcr7^−/− and Dhcr7^+/− MEFs were generated from embryonic day-9 mutant mice and Sc5h1 and Sc5d^−/− and Sc5d^+/− MEFs from embryonic day-14.5 mutant mice. We generated a reporter construct with firefly luciferase and Gli (pGL3-8xGli-luciferase) by cloning eight tandem Gli-binding sites and a lens crystallin promoter from the 8xGli-BS Luc construct^22 into the pGL3-Basic vector (Promega). We determined relative Hh pathway activity in Dhcr7^−/−, Dhcr7^+/−, Sc5d^+/+ and Sc5d^+/− MEFs from the expression of transiently transfected pGL3-8xGli-luciferase and control Renilla luciferase (pRL-SV40; Promega) vectors. In Ptch^−/− MEFs, we normalized β-galactosidase activity expressed under the control of the Ptch promoter for protein levels to determine relative Hh pathway activity. In the NIH3T3 cell clone Shh-LIGHT Z3, we normalized 8xGli-BS luciferase activity for β-galactosidase activity from stably transfected vectors (8xGli-BS Luc^22 and piZ-lacZ). We established clonal sublines of Shh-LIGHT Z3 by cotransfecting either Smo tagged with Myc epitope or SmoA1 with vector encoding G418 resistance (pGT; Invivogen). All transfections were done with Fugene 6. We carried out cyclodextrin treatments for 30 min with methyl-β-cyclodextrin (Sigma) dissolved in Dulbecco's modified Eagle medium, preceded and followed by two washes with phosphate-buffered saline. Fetal bovine serum was depleted of lipids as described^23. We purchased compactin as an active sodium salt form of mevastatin (Biomol) and dissolved it in dimethylsulfoxide.
# as §3
# Hh pathway [6] = assay: Response of cells to ShhNp protein under sterol-specific perturbations (data not shown); assay type: cell-based
# Text: Cyclodextrins form complexes with hydrophobic compounds including proteins and phospholipids in addition to sterols^6.
# [7] = 400 μM cyclodextrin, 30 nM ShhN, 48 h
compound,measurement,setting,value
Methyl-β-cyclodextrin,Shh pathway activity driven by SmoA1,SmoA1,resistant to inhibition
same,BMP-induced migration of neural-crest cells,neural-crest cells,did not inhibit
same,constitutive Hh pathway activity in Ptch−/− fibroblasts,[1],dose-dependent reduction
same,constitutive Hh pathway activity in Ptch−/− fibroblasts,[1]; listed as Cyclodextrin,blocked
same,HNF3β and lSL1 marker expression,"[2]; 200 μM cyclodextrin, 30 nM ShhN, 48 h",both HNF3μ and lSL1 were expressed
same,high-threshold response to ShhN (HNF3β),[2]; [7],blocked
same,"lSL1 expression (intermediate-threshold response, motor-neuron fate)",[2]; [7],substantially uniform expression of lSL1
same,differentiation of neural plate explant cells as motor neurons,[2]; 400 μM β-methyl CD in conjunction with 30 nM ShhN,all cells
same,cellular response to Shh protein (FIG. 2b),"[2]; cyclodextrin treatment, concentration not given in legend",inhibited the cellular response to Shh protein
same,Shh pathway activation by overexpressed wild-type Smo,Smo,inhibited
same,Shh autoprocessing,Shh autoprocessing,no observable effect
same,developmental malformation of facial and midline structures,chick embryos,variable loss of midline tissues
same,developmental malformation of facial and midline structures,chick embryos; listed as Cyclodextrin,variable loss of the frontonasal process and other midline structures; also recorded: holoprosencephaly
same,ability to respond to Shh signal,"Hh pathway [3]; Dhcr7 and Sc5d mutant MEFs, transient 30-min cyclodextrin, lipid-depleted medium, ShhNp 10 nM",clear deficiencies in their ability to respond to Shh signal
same,response to ShhNp stimulation,"Hh pathway [3]; cells heterozygous for Dhcr7 and Sc5d mutations, all growth conditions incl. transient cyclodextrin",normal response
same,"sterol levels after initial transient cyclodextrin treatment, needed to affect pathway response",[4],below 40 μg mg^−1 protein
same,inhibition of Shh signal response,Hh pathway [5]; continuous treatment with 500 μM cyclodextrin,about 50%
same,inhibition of Shh signal response,Hh pathway [5]; continuous treatment with 2 mM cyclodextrin,nearly complete inhibition
same,response to Shh signaling under chronic cyclodextrin,"Hh pathway [5]; cyclodextrin in culture medium for the duration of ShhNp induction, comparable to 5 μM cyclopamine",dose dependent manner; also recorded: inhibited
same,"Shh signal response, transient cyclodextrin combined with continuous compactin","Hh pathway [5]; transient cyclodextrin before ShhNp induction, then compactin during induction",blocked; also recorded: inhibited
same,persistence of Hh pathway inhibition after cyclodextrin treatment,"Hh pathway [5]; transient cyclodextrin, sterol depletion maintained with compactin",72 h
same,ShhNp response after transient cyclodextrin alone,"Hh pathway [5]; transient treatment for 30 minutes before ShhNp, even at 15 mM cyclodextrin",did not affect response
CCCCC[C@@H](O)[C@H]1C(=O)O[C@H](C)[C@@H](O)/C=C/C=C/C=C/C=C/C=C(\C)[C@@H](O)C[C@H](O)C[C@H](O)C[C@H](O)C[C@H](O)C[C@H](O)C[C@@H]1O [filipin],response of cells to ShhNp protein,Hh pathway [6],blocked
CC[C@H](C)C(=O)O[C@H]1CCC=C2C=C[C@H](C)[C@H](CC[C@@H]3C[C@@H](O)CC(=O)O3)[C@H]21 [compactin],ShhNp response under compactin alone,Hh pathway [5]; continuous exposure to compactin,not affected
C[C@@H]1[C@H](O)[C@@H](C)/C=C/C=C/CC/C=C/C=C/C=C/C=C/C(O[C@H]2O[C@H](C)[C@@H](O)[C@H](N)[C@@H]2O)CC2O[C@](O)(CC(O)C(O)CCC(O)CC(O)CC(O)CC(=O)O[C@H]1C)CC(O)C2C(=O)O (stereo partly shown) [nystatin],response of cells to ShhNp protein,Hh pathway [6],blocked
